Measurements reported in patent US20230227500A1, “NANOPARTICLE-LIKE DELIVERY SYSTEM” (Evox Therapeutics Ltd, priority 2019, published 2023).
Where a SMILES comes first, the peptide text is derived from it. Bridges are numbered along the chain shown (N, C = ends). [ ]: non-standard residue; d: D form. R8 = C=CCCCCCC[C@@](C)(N)C(=O)O; S8 = C=CCCCCCC[C@](C)(N)C(=O)O; S5 = C=CCCC[C@](C)(N)C(=O)O

What was measured:
[1] = In vivo delivery and biodistribution of Cy5-labelled SSO, IVIS imaging of dissected tissues; design: species or system NMRI mice; conditions: 2.5 mg/kg SSO, MR10, i.v., 48 h, FIG. 2(B)
Method: In order to investigate the in vivo delivery capacity and biodistribution profile of the peptide/SSO nanoparticles, Oct2815 peptide was formulated at a dose of 50 μg (2.5 mg/kg) of Cy5-labelled 2′-OMe/LNA mixmer-based SSO (at MR10) and then injected intravenously into NMRI mice. After 48 h of treatment, the fluorescence values were measured from the dissected tissues (brain, liver, lungs, heart, G.I. tract, spleen, muscles and kidneys) of the animals with an IVIS in vivo imager.

mice = experiment: Tolerability of peptide/mRNA formulation after intravenous injection; type: in vivo; conditions: 6.25 mg/kg of mRNA/25 mg/kg of peptide, i.v.
Method: Delivery of mRNA was tested using the 246, Oct815 and Oct2815 peptides and a luciferase-encoding mRNA (Luc mRNA). Various peptides were formulated at 1.25 mg/kg of mRNA dosing, at a peptide-to-mRNA weight ratio 4. Oct2815 was also formulated at 6.25 mg/kg of mRNA dosing, at a peptide-to-mRNA weight ratio 4. The formulations were subsequently injected intravenously into NMRI mice. After 24 h of treatment, the mice were sacrificed and the lungs, heart, liver, spleen and kidneys dissected. Luciferase activity was measured in the dissected tissues by bioluminescence imaging on an IVIS in vivo imaging system.
The peptides of the invention are believed to be tolerated in a dose of up to 30 mg/kg in mice, which is at least 10-fold higher than the dose commonly known to be tolerated when using any CPP of the prior art in vivo.

HeLa pluc705 cells = experiment: HeLa pluc705 splice correction reporter, delivery of SSOs; type: cell-based; conditions: 100 nM 2'OMe SSO, 24 h, MR3-MR10, FIG. 1B
Source text: To evaluate the ability of peptides of the invention to effectively deliver SSOs into cells, the HeLa pluc705 splice correction reporter system was used as a model (FIG. 1A). In this assay, HeLa cells are stably transfected with a luciferase endocing sequence that is interrupted by the β-globin pre-mRNA carrying a crypting splice site. If the SSO is effectively delivered to the cells and reaches the cell nucleus, it masks the aberrant splicing site (depicted ON-705 on the right-hand side of FIG. 1A). By redirecting the splicing, it will give rise to the production of functional luciferase protein. The luciferase enzyme activity thus acts as a measure to assess the delivery efficacy of the SSOs. This model is known for being an excellent positive read-out system with wide dynamic range for evaluating and comparing the delivery of SSOs and different delivery vectors.
The peptides were formulated with 2′-O-methyl phosphorothioate (2′OMe)-based SSOs at different peptide-to-SSO molar ratios (MRs), namely MR3, MR5, MR7 and MR10. The HeLa pluc705 cells were treated with various peptide/SSO nanoformulations at 100 nM SSO concentration for 24 h. After this time, the luciferase activity was measured. Delivery efficacy was expressed as a fold-increase over the values from untreated (UT) cells (ie. fold increase in splice correction).

HEK293T Stop-Light cells [2] = experiment: Cas9 RNP delivery, stop-light reporter gene editing (eGFP by FACS); type: cell-based; conditions: FIG. 5B
Source text: Delivery of proteins is another important modality for the peptides of the present invention. In order to investigate the ability of the peptides to deliver protein, a stop-light reporter system was employed. FIG. 5A illustrates the stop-light reporter system, which is a quick and simple system to evaluate indel formation in stably transduced cells. Cells are transfected with a construct containing an mCherry gene followed by two enhanced green fluorescent protein (eGFP) genes that are shifted out of frame by +1 and +2 nucleotides, respectively. The mCherry gene is constituently expressed, while the eGFP genes are only expressed if a double stranded break in the linker creates insertions or deletions of +/−1 or 2 bp. This occurs upon the effective delivery of Cas9 RNP system to the nucleus of cells, which leads to one of the two eGFP genes being in frame and thus expressed. […]
5k HEK293T Stop-Light cells were treated with 50 ng ([…]) Cas9 that was formulated with various peptides at different peptide-to-Cas9 RNP MRs (50:1-100:1). After 72 h of treatment, eGFP expression was analysed by fluorescence-activated cell sorting (FACS) analysis. Gene editing efficiency was calculated as a percentage of cells in the cell population where eGFP expression was induced by the treatment.

HEK293T Stop-Light cells [3] = experiment: Effect of additives on Cas9 RNP delivery, stop-light reporter; type: cell-based; conditions: FIG. 11
Method: In order to investigate the effect of additives on the efficacy of the peptides/nanoparticles of the invention a range of different additives were tested and the effect on delivery of Cas9 ribonuncleoprotein (RNP) was examined using the same stop-light reporter system described above and illustrated in FIG. 5.
Peptides Oct215 or Oct2815 were tested. Cas9 RNP was formulated in HBG buffer (HEPES buffered glucose) with either glycerol, PEG, PVP10, PVP55, PVA18, PVA40 or PVA-PEG. Oct215 or 2815 was added and incubated at room temperature for 40 min to allow peptide nanoparticles to form (1.1:1 sgRNA to Cas9 and 1:150 RNP:CPP).
Following incubation HEK293T Stop-Light cells were treated with the peptide RNP complex (25 ng Cas9 added to each well). After 72 h of treatment, eGFP expression was analysed by fluorescence-activated cell sorting (FACS) analysis. Gene editing efficiency was calculated as the percentage of eGFP expressing cells in the viable mCherry expressing population, mCherry being the marker for reporter construct expression and eGFP for gene editing of said construct.

C=CCCCCCC[C@@](C)(NC(=O)[C@H](C)NC(=O)[C@H](CCCCN)NC(=O)[C@H](C)NC(=O)[C@H](CC(C)C)NC(=O)[C@H](CCCCN)NC(=O)[C@@](C)(CCCCCCC=C)NC(=O)[C@@H](N)CC(C)C)C(=O)N[C@@H](C)C(=O)N[C@@H](CCCCN)C(=O)N[C@@H](CC(C)C)C(=O)N[C@@H](CC(C)C)C(=O)N[C@@H](CCCCN)C(=O)N[C@@H](C)C(=O)N[C@@](C)(CCCCCCC=C)C(=O)N[C@@H](C)C(=O)N[C@@H](CCCCN)C(=O)N[C@@H](C)C(=O)N[C@@H](CC(C)C)C(N)=O [Oct2815, H-L A(R8) K L A K A A(R8) A K L L K A A(S8) A K A L-NH2] (H-L[R8]KLAKA[R8]AKLLKA[S8]AKAL-NH2)
accumulation of SSO in liver in comparison with SSO alone (fold enrichment) [1]: 2.5 fold
accumulation of SSO in lungs in comparison with SSO alone (fold enrichment) [1]: 3.5 fold
accumulation of SSO in spleen in comparison with SSO alone (fold enrichment) [1]: 5 fold
side-effects at very high dosing (mice): without any apparent side-effects

H-L A K L A K A A(R8) A K L L K A A(S5) A K A L-NH2 (H-LAKLAKA[R8]AKLLKA[S5]AKAL-NH2; staple 8-15; SMILES CC(C)C[C@H](NC(=O)[C@H](C)NC(=O)[C@H](CCCCN)NC(=O)[C@H](C)NC(=O)[C@]1(C)CCCC=CCCCCCC[C@@](C)(NC(=O)[C@H](C)NC(=O)[C@H](CCCCN)NC(=O)[C@H](C)NC(=O)[C@H](CC(C)C)NC(=O)[C@H](CCCCN)NC(=O)[C@H](C)NC(=O)[C@@H](N)CC(C)C)C(=O)N[C@@H](C)C(=O)N[C@@H](CCCCN)C(=O)N[C@@H](CC(C)C)C(=O)N[C@@H](CC(C)C)C(=O)N[C@@H](CCCCN)C(=O)N[C@@H](C)C(=O)N1)C(N)=O) [compound 246]
SSO delivery and splice switching activity (fold increase in splice correction, luciferase activity) (HeLa pluc705 cells): able to mediate effective SSO delivery and induce strong splice switching activity

H-L A K L A K A A(R8) A K L L K A A(S8) A K A L-NH2 (H-LAKLAKA[R8]AKLLKA[S8]AKAL-NH2; staple 8-15; SMILES CC(C)C[C@H](NC(=O)[C@H](C)NC(=O)[C@H](CCCCN)NC(=O)[C@H](C)NC(=O)[C@]1(C)CCCCCCC=CCCCCCC[C@@](C)(NC(=O)[C@H](C)NC(=O)[C@H](CCCCN)NC(=O)[C@H](C)NC(=O)[C@H](CC(C)C)NC(=O)[C@H](CCCCN)NC(=O)[C@H](C)NC(=O)[C@@H](N)CC(C)C)C(=O)N[C@@H](C)C(=O)N[C@@H](CCCCN)C(=O)N[C@@H](CC(C)C)C(=O)N[C@@H](CC(C)C)C(=O)N[C@@H](CCCCN)C(=O)N[C@@H](C)C(=O)N1)C(N)=O) [Oct815]
SSO delivery and splice switching activity (fold increase in splice correction, luciferase activity) (HeLa pluc705 cells): able to mediate effective SSO delivery and induce strong splice switching activity
relative potency among peptides (Cas9 RNP gene editing) (HEK293T Stop-Light cells [2]): most potent

H-L A(R8) K L A K A A A K L L K A A(S8) A K A L-NH2 (H-L[R8]KLAKAAAKLLKA[S8]AKAL-NH2; staple 2-15; SMILES CC(C)C[C@H](NC(=O)[C@H](C)NC(=O)[C@H](CCCCN)NC(=O)[C@H](C)NC(=O)[C@]1(C)CCCCCCC=CCCCCCC[C@@](C)(NC(=O)[C@@H](N)CC(C)C)C(=O)N[C@@H](CCCCN)C(=O)N[C@@H](CC(C)C)C(=O)N[C@@H](C)C(=O)N[C@@H](CCCCN)C(=O)N[C@@H](C)C(=O)N[C@@H](C)C(=O)N[C@@H](C)C(=O)N[C@@H](CCCCN)C(=O)N[C@@H](CC(C)C)C(=O)N[C@@H](CC(C)C)C(=O)N[C@@H](CCCCN)C(=O)N[C@@H](C)C(=O)N1)C(N)=O) [Oct215]
gene editing efficiency (efficacy of cargo delivery) with PVA-PEG (HEK293T Stop-Light cells [3]; 25 ng Cas9, 1:150 RNP:CPP, HBG buffer with PVA-PEG, 72 h): up to 60%
effect of additives on efficacy (HEK293T Stop-Light cells [3]): enhanced still further by the presence of different additives
